Activity calls are given as the source filed them. The calls are words filed in the database; no cut-off is given here.
How the values were obtained:
A549 [1] = test: Cytotoxicity against human A549 cells by CCK8 assay; assay type: functional, cell-based
CNE-2 = test: Cytotoxicity against human CNE2 cells by CCK8 assay; assay type: functional, cell-based
HeLa [2] = test: Cytotoxicity against human HeLa cells by CCK8 assay; assay type: functional, cell-based
HepG2 = test: Cytotoxicity against human HepG2 cells by CCK8 assay; assay type: functional, cell-based
MCF7 = test: Cytotoxicity against human MCF7 cells by CCK8 assay; assay type: functional, cell-based
L02 = test: Cytotoxicity against human L02 cells by CCK8 assay; assay type: cell-based
[3] = Cytotoxicity against HUVEC12 cells by CCK8 assay; assay type: cell-based; conditions: Homo sapiens
HeLa [4] = test: Inhibition of serum-induced cell migration in human HeLa cells at 0.5 to 2 times IC50 measured up to 17 hrs by wound healing assay; assay type: functional, cell-based
A549 [5] = test: Inhibition of serum-induced cell migration in human A549 cells at 0.5 to 2 times IC50 measured up to 46 hrs by wound healing assay; assay type: functional, cell-based
[6] = Inhibition of serum-induced cell migration in HUVEC12 cells at 0.5 to 2 times IC50 measured up to 17 hrs by wound healing assay; assay type: cell-based; conditions: human

Structure (SMILES) | IC50 (A549 [1]) [µM] | IC50 (CNE-2) [µM] | IC50 (HeLa [2]) [µM] | IC50 (HepG2) [µM] | IC50 (MCF7) [µM] | IC50 (L02) [µM] | IC50 [3] [µM] | inhibition (HeLa [4]) | inhibition (A549 [5]) | Activity [6]
C[C@@H]1C[C@H](C)C[C@H](C)[C@@H](O)CC(=O)O[C@@H]([C@@H]2CCC[C@H]2C(=O)O)C/C=C/C=C(/C#N)[C@@H](O)[C@@H](C)C1 | 9.2 | 9.35 | 11.6 | 14.6 | 1.21 | 8.73 | 12 | – | – | –
COc1cccc2c1C(=O)c1c(O)c3c(c(O)c1C2=O)C[C@@](O)(C(=O)CO)C[C@@H]3O[C@H]1C[C@H](N)[C@H](O)[C@H](C)O1 [DOXORUBICIN] | 3.41 | 3.52 | – | 1.13 | – | 13.2 | 34.2 | – | – | –
C[C@@H]1C[C@H](C)C[C@H](C)[C@@H](O)CC(=O)O[C@@H]([C@@H]2CCC[C@H]2C(=O)O)C/C=C/C=C(/C#N)[C@H](O)[C@@H](C)C1 | 1.69 | 1.55 | 2.19 | 2.19 | 0.12 | 0.98 | 1.44 | – | – | –
C[C@@H]1C[C@H](C)C[C@H](C)[C@@H](O)CC(=O)O[C@@H]([C@@H]2CCC[C@H]2C(=O)O)C/C=C\C=C(/C#N)[C@H](O)[C@@H](C)C1 | 15.2 | 14.4 | 15.1 | 17.5 | 1.15 | 22.8 | 14.3 | – | – | –
CC(=O)NC/C1=C/C=C/C[C@H]([C@@H]2CCC[C@H]2C(=O)O)OC(=O)C[C@H](O)[C@@H](C)C[C@@H](C)C[C@@H](C)C[C@H](C)[C@@H]1O | > 50 | > 50 | > 50 | > 50 | > 50 | > 50 | > 50 | inactive | inactive | –
C[C@@H]1C[C@H](C)C[C@H](C)[C@@H](O)CC(=O)O[C@@H]([C@@H]2CCC[C@H]2C(=O)O)C/C=C\C=C(/C#N)[C@@H](O)[C@@H](C)C1 | 1.22 | 1.27 | 1.28 | 2.05 | 0.12 | 7.26 | 6.13 | Active | Active | Non-Toxic

Reference: ChEMBL document CHEMBL4219074, “Borrelidins F-I, cytotoxic and cell migration inhibiting agents from mangrove-derived Streptomyces rochei SCSIO ZJ89” (Bioorg Med Chem, 2018)
